Source: patent US20170369470A1, “Cyclic Compounds and Uses Thereof” (Karyopharm Therapeutics Inc., priority 2014, published 2017)
pIC50: −log10 of the molar value.

Key:
Type in all cases: cell-based
MS751 cells = experiment: MTT cell proliferation assay, MS751 cells; conditions: MS751 cells (human cervix squamous cell carcinoma metastasis); incubation approximately 64-72 hours; read-out: MTT Assay IC50 MS 751
Description: (§1) The MTT cell proliferation assay was used to study the cytotoxic properties of the compounds. The assay was performed according to the method described by Roche Molecular Biochemicals, with minor modifications. The assay is based on the cleavage of the tetrazolium salt, MTT, in the presence of an electron-coupling reagent. The water-insoluble formazan salt produced must be solubilized in an additional step. Cells grown in a 96-well tissue culture plate were incubated with the MTT solution for approximately 4 hours. After this incubation period, a water-insoluble formazan dye formed. After solubilization, the formazan dye was quantitated using a scanning multi-well spectrophotometer (ELISA reader). […] The cells were seeded at 5,000-10,000 cells in each well of 96-well plate in 100 μL of fresh culture medium and were allowed to attach overnight. The stock solutions of the compounds were diluted in 100 μL cell culture medium to obtain eight concentrations of each test compound, ranging from 1 nM to 30 μM. […] All optical densities were measured at 490 nm using a Vmax Kinetic Microplate Reader (Molecular Devices). In most cases, the assay was performed in duplicate and the results were presented as a mean percent inhibition to the negative control±SE. The following formula was used to calculate the percent of inhibition: Inhibition (%)=(1−(ODo/OD))×100.
(§2) The compounds were tested against MS751, Z138 and 3T3 cells. The MS751 cell line is derived from a metastasis to lymph node of human cervix from a patient diagnosed with squameous cell carcinoma of the cervix. The Z138 cell line is a mature B-cell acute lymphoblastic leukemia cell line derived from a patient with chronic lumphocytic leukemia. 3T3 cells are standard fibroblast cells; they were originally isolated from Swiss mouse embryo tissue.

Z138 cells = experiment: MTT cell proliferation assay, Z138 cells; conditions: Homo sapiens, Z-138; Z138 cells (mantle cell lymphoma line); incubation approximately 64-72 hours
Description: as §1, §2

3T3 cells = experiment: MTT cell proliferation assay, 3T3 cells; conditions: NIH3T3; 3T3 fibroblast cells (Swiss mouse embryo); incubation approximately 64-72 hours
Description: as §1, §2

Nc1ccc(/C=C/C(=O)NCc2cc3cc(-c4ccc(C(=O)N5CC6(COC6)C5)cn4)cc(C(F)(F)F)c3s2)cn1 [compound 511, (E)-N-((5-(5-(2-oxa-6-azaspiro[3.3]heptane-6-carbonyl)pyridin-2-yl)-7-(trifluoromethyl)benzo[b]thiophen-2-yl)methyl)-3-(6-aminopyridin-3-yl)acrylamide]
pIC50 (MS751 cells): > 6.00
pIC50 (Z138 cells): > 6.00
pIC50 (3T3 cells): < 5.00

Nc1ccc(/C=C/C(=O)NCc2nc3cc(-c4ccc(C(=O)N5CCC(F)(F)CC5)cn4)cc(C(F)(F)F)c3s2)cn1 [compound 532, (E)-3-(6-aminopyridin-3-yl)-N-((5-(5-(4,4-difluoropiperidine-1-carbonyl)pyridin-2-yl)-7-(trifluoromethyl)benzo[d]thiazol-2-yl)methyl)acrylamide]
pIC50 (MS751 cells): > 6.00
pIC50 (Z138 cells): > 6.00
pIC50 (3T3 cells): < 5.00

Nc1ccc(/C=C/C(=O)NCc2cc3cc(-c4ccc(C(=O)N5CC(F)(F)C5)cn4)cc(C(F)(F)F)c3s2)cn1 [compound 512, (E)-3-(6-aminopyridin-3-yl)-N-((5-(5-(3,3-difluoroazetidine-1-carbonyl)pyridin-2-yl)-7-(trifluoromethyl)benzo[b]thiophen-2-yl)methyl)acrylamide]
pIC50 (MS751 cells): 5.30 to 6.00
pIC50 (Z138 cells): > 6.00
pIC50 (3T3 cells): 5.00 to 5.30

CC1(C)CN(C(=O)c2ccc(-c3cc(C(F)(F)F)c4sc(CNC(=O)/C=C/c5ccc(N)nc5)cc4c3)nc2)CCO1 [compound 514, (E)-3-(6-aminopyridin-3-yl)-N-((5-(5-(2,2-dimethylmorpholine-4-carbonyl)pyridin-2-yl)-7-(trifluoromethyl)benzo[b]thiophen-2-yl)methyl)acrylamide]
pIC50 (MS751 cells): 5.30 to 6.00
pIC50 (Z138 cells): > 6.00
pIC50 (3T3 cells): < 5.00

Nc1ccc(/C=C/C(=O)NCc2cc3cc(-c4ccc(C(=O)N5CC6(COC6)C5)cc4)cc(C(F)(F)F)c3s2)cn1 [compound 519, (E)-N-((5-(4-(2-oxa-6-azaspiro[3.3]heptane-6-carbonyl)phenyl)-7-(trifluoromethyl)benzo[b]thiophen-2-yl)methyl)-3-(6-aminopyridin-3-yl)acrylamide]
pIC50 (MS751 cells): > 6.00
pIC50 (Z138 cells): > 6.00
pIC50 (3T3 cells): < 5.00

CC1(O)CCN(C(=O)c2ccc(-c3cc(C(F)(F)F)c4sc(CNC(=O)/C=C/c5ccc(N)nc5)cc4c3)cc2)CC1 [compound 528, (E)-3-(6-aminopyridin-3-yl)-N-((5-(4-(4-hydroxy-4-methylpiperidine-1-carbonyl)phenyl)-7-(trifluoromethyl)benzo[b]thiophen-2-yl)methyl)acrylamide]
pIC50 (MS751 cells): 5.30 to 6.00
pIC50 (Z138 cells): > 6.00
pIC50 (3T3 cells): < 5.00

Nc1ccc(/C=C/C(=O)NCc2nc3cc(-c4ccc(C(=O)N5CCC(F)(F)CC5)cc4)cc(C(F)(F)F)c3s2)cn1 [compound 533, (E)-3-(6-aminopyridin-3-yl)-N-((5-(4-(4,4-difluoropiperidine-1-carbonyl)phenyl)-7-(trifluoromethyl)benzo[d]thiazol-2-yl)methyl)acrylamide]
pIC50 (MS751 cells): > 6.00
pIC50 (Z138 cells): > 6.00
pIC50 (3T3 cells): < 5.00

Nc1ccc(/C=C/C(=O)NCc2cc3cc(-c4ccc(C(=O)N5CCC(F)(F)CC5)cn4)cc(C(F)(F)F)c3[nH]2)cn1 [compound 501, (E)-3-(6-aminopyridin-3-yl)-N-((5-(5-(4,4-difluoropiperidine-1-carbonyl)pyridin-2-yl)-7-(trifluoromethyl)-1H-indol-2-yl)methyl)acrylamide]
pIC50 (MS751 cells): < 5.00
pIC50 (Z138 cells): < 5.00
pIC50 (3T3 cells): < 5.00

Nc1ccc(/C=C/C(=O)NCc2cc3cc(-c4ccc(C(=O)N5CC6(C5)CC(F)(F)C6)cn4)cc(C(F)(F)F)c3s2)cn1 [compound 515, (E)-3-(6-aminopyridin-3-yl)-N-((5-(5-(6,6-difluoro-2-azaspiro[3.3]heptane-2-carbonyl)pyridin-2-yl)-7-(trifluoromethyl)benzo[b]thiophen-2-yl)methyl)acrylamide]
pIC50 (MS751 cells): > 6.00
pIC50 (Z138 cells): > 6.00
pIC50 (3T3 cells): < 5.00

Nc1ccc(/C=C/C(=O)NCc2cc3cc(-c4ccc(C(=O)N5CCC(F)CC5)cc4)cc(C(F)(F)F)c3s2)cn1 [compound 529, (E)-3-(6-aminopyridin-3-yl)-N-((5-(4-(4-fluoropiperidine-1-carbonyl)phenyl)-7-(trifluoromethyl)benzo[b]thiophen-2-yl)methyl)acrylamide]
pIC50 (MS751 cells): < 5.00
pIC50 (Z138 cells): < 5.00
pIC50 (3T3 cells): < 5.00

Nc1ccc(/C=C/C(=O)NCc2cc3cc(-c4ccc(C(=O)N5CCC(F)(F)C5)cc4)cc(C(F)(F)F)c3s2)cn1 [compound 520, (E)-3-(6-aminopyridin-3-yl)-N-((5-(4-(3,3-difluoropyrrolidine-1-carbonyl)phenyl)-7-(trifluoromethyl)benzo[b]thiophen-2-yl)methyl)acrylamide]
pIC50 (MS751 cells): 5.00 to 5.30
pIC50 (Z138 cells): 5.30 to 6.00
pIC50 (3T3 cells): < 5.00

Nc1ccc(/C=C/C(=O)NCc2cc3cc(-c4ccc(C(=O)N5CCC(F)(F)CC5)cc4)cc(-c4ccc(F)cc4)c3s2)cn1 [compound 536, (E)-3-(6-aminopyridin-3-yl)-N-((5-(4-(4,4-difluoropiperidine-1-carbonyl)phenyl)-7-(4-fluorophenyl)benzo[b]thiophen-2-yl)methyl)acrylamide]
pIC50 (MS751 cells): > 6.00
pIC50 (Z138 cells): > 6.00
pIC50 (3T3 cells): < 5.00

Nc1ccc(/C=C/C(=O)NCc2cc3cc(-c4ccc(C(=O)N5CC[C@H](F)C5)cn4)cc(C(F)(F)F)c3s2)cn1 [compound 513, (S,E)-3-(6-aminopyridin-3-yl)-N-((5-(5-(3-fluoropyrrolidine-1-carbonyl)pyridin-2-yl)-7-(trifluoromethyl)benzo[b]thiophen-2-yl)methyl)acrylamide]
pIC50 (MS751 cells): 5.30 to 6.00
pIC50 (Z138 cells): 5.30 to 6.00
pIC50 (3T3 cells): 5.00 to 5.30

Nc1ccc(/C=C/C(=O)NCc2cc3cc(-c4ccc(C(=O)N5CCC(O)(C(F)(F)F)CC5)cn4)cc(C(F)(F)F)c3s2)cn1 [compound 505, (E)-3-(6-aminopyridin-3-yl)-N-((5-(5-(4-hydroxy-4-(trifluoromethyl)piperidine-1-carbonyl)pyridin-2-yl)-7-(trifluoromethyl)benzo[b]thiophen-2-yl)methyl)acrylamide]
pIC50 (MS751 cells): 5.30 to 6.00
pIC50 (Z138 cells): 5.30 to 6.00
pIC50 (3T3 cells): < 5.00

Nc1ccc(/C=C/C(=O)NCc2cc3cc(-c4ccc(C(=O)N5CCC(F)CC5)cn4)cc(C(F)(F)F)c3s2)cn1 [compound 517, (E)-3-(6-aminopyridin-3-yl)-N-((5-(5-(4-fluoropiperidine-1-carbonyl)pyridin-2-yl)-7-(trifluoromethyl)benzo[b]thiophen-2-yl)methyl)acrylamide]
pIC50 (MS751 cells): 5.30 to 6.00
pIC50 (Z138 cells): 5.30 to 6.00
pIC50 (3T3 cells): < 5.00

CC1(C)COCCN1C(=O)c1ccc(-c2cc(C(F)(F)F)c3sc(CNC(=O)/C=C/c4ccc(N)nc4)cc3c2)nc1 [compound 508, (E)-3-(6-aminopyridin-3-yl)-N-((5-(5-(3,3-dimethylmorpholine-4-carbonyl)pyridin-2-yl)-7-(trifluoromethyl)benzo[b]thiophen-2-yl)methyl)acrylamide]
pIC50 (MS751 cells): 5.30 to 6.00
pIC50 (Z138 cells): 5.30 to 6.00
pIC50 (3T3 cells): < 5.00

Nc1ccc(/C=C/C(=O)NCc2cc3cc(-c4ccc(C(=O)N5CCC(F)(F)CC5)cn4)cc(C(F)(F)F)c3s2)cn1 [compound 503, (E)-3-(6-aminopyridin-3-yl)-N-((5-(5-(4,4-difluoropiperidine-1-carbonyl)pyridin-2-yl)-7-(trifluoromethyl)benzo[b]thiophen-2-yl)methyl)acrylamide]
pIC50 (MS751 cells): 5.30 to 6.00
pIC50 (Z138 cells): 5.30 to 6.00
pIC50 (3T3 cells): < 5.00

Nc1ccc(/C=C/C(=O)NCc2cc3cc(-c4ccc(C(=O)N5CCC(O)(C(F)(F)F)CC5)cc4)cc(C(F)(F)F)c3s2)cn1 [compound 521, (E)-3-(6-aminopyridin-3-yl)-N-((5-(4-(4-hydroxy-4-(trifluoromethyl)piperidine-1-carbonyl)phenyl)-7-(trifluoromethyl)benzo[b]thiophen-2-yl)methyl)acrylamide]
pIC50 (MS751 cells): 5.30 to 6.00
pIC50 (Z138 cells): 5.30 to 6.00
pIC50 (3T3 cells): < 5.00

Nc1ccc(/C=C/C(=O)NCc2cc3cc(-c4ccc(C(=O)N5CC[C@H](F)C5)cc4)cc(C(F)(F)F)c3s2)cn1 [compound 525, (S,E)-3-(6-aminopyridin-3-yl)-N-((5-(4-(3-fluoropyrrolidine-1-carbonyl)phenyl)-7-(trifluoromethyl)benzo[b]thiophen-2-yl)methyl)acrylamide]
pIC50 (MS751 cells): 5.30 to 6.00
pIC50 (Z138 cells): 5.30 to 6.00
pIC50 (3T3 cells): < 5.00

CC1(F)CCN(C(=O)c2ccc(-c3cc(C(F)(F)F)c4sc(CNC(=O)/C=C/c5ccc(N)nc5)cc4c3)nc2)C1 (stereo not drawn) [compound 507, (E)-3-(6-aminopyridin-3-yl)-N-((5-(5-(3-fluoro-3-methylpyrrolidine-1-carbonyl)pyridin-2-yl)-7-(trifluoromethyl)benzo[b]thiophen-2-yl)methyl)acrylamide]
pIC50 (MS751 cells): 5.30 to 6.00
pIC50 (Z138 cells): 5.30 to 6.00
pIC50 (3T3 cells): < 5.00
